In ChEMBL document CHEMBL1667770, “Stereoselective first total synthesis, confirmation of the absolute configuration and bioevaluation of botryolide-E” (2011):
Values after ≈ are worked out from the molar mass of the structure shown.

Columns and labels:
Type in all cases: functional
Staphylococcus aureus = test: Antimicrobial activity against Staphylococcus aureus MTCC 96 after 24 hrs by broth dilution method; conditions: MTCC 96, 24 h
Bacillus subtilis = test: Antimicrobial activity against Bacillus subtilis MTCC 441 after 24 hrs by broth dilution method; conditions: MTCC 441, 24 h
[1] = system: Staphylococcus epidermidis; test: Antimicrobial activity against Staphylococcus epidermidis MTCC 437 after 24 hrs by broth dilution method; conditions: MTCC 437, 24 h
Escherichia coli = test: Antimicrobial activity against Escherichia coli MTCC 443 after 24 hrs by broth dilution method; conditions: MTCC 443, 24 h
Pseudomonas aeruginosa = test: Antimicrobial activity against Pseudomonas aeruginosa MTCC 741 after 24 hrs by broth dilution method; conditions: MTCC 741, 24 h
Klebsiella pneumoniae = test: Antimicrobial activity against Klebsiella pneumoniae MTCC 39 after 24 hrs by broth dilution method; conditions: MTCC 39, 24 h
Rhizopus arrhizus [2] = test: Antimicrobial activity against Rhizopus oryzae MTCC 262 at 100 ug/ml after 24 to 96 hrs by agar cup method; conditions: read-out: IZ
Aspergillus niger [3] = test: Antimicrobial activity against Aspergillus niger MTCC 1344 at 100 ug/ml after 24 to 96 hrs by agar cup method; conditions: read-out: IZ
Candida albicans [4] = test: Antimicrobial activity against Candida albicans MTCC 227 at 100 ug/ml after 24 to 96 hrs by agar cup method; conditions: read-out: IZ
Saccharomyces cerevisiae [5] = test: Antimicrobial activity against Saccharomyces cerevisiae MTCC 171 at 100 ug/ml after 24 to 96 hrs by agar cup method; conditions: read-out: IZ
Rhizopus arrhizus [6] = test: Antimicrobial activity against Rhizopus oryzae MTCC 262 at 30 ug/ml after 24 to 96 hrs by agar cup method; conditions: read-out: IZ
Aspergillus niger [7] = test: Antimicrobial activity against Aspergillus niger MTCC 1344 at 30 ug/ml after 24 to 96 hrs by agar cup method; conditions: read-out: IZ
Candida albicans [8] = test: Antimicrobial activity against Candida albicans MTCC 227 at 30 ug/ml after 24 to 96 hrs by agar cup method; conditions: read-out: IZ
Saccharomyces cerevisiae [9] = test: Antimicrobial activity against Saccharomyces cerevisiae MTCC 171 at 30 ug/ml after 24 to 96 hrs by agar cup method; conditions: read-out: IZ

In the case of CC1(C)S[C@@H]2[C@H](NC(=O)Cc3ccccc3)C(=O)N2[C@H]1C(=O)O [PENICILLIN G], the MIC (Staphylococcus aureus) is reported as 1.56 µg/mL (≈ 4.67 µM), the MIC (Bacillus subtilis) is reported as 1.56 µg/mL (≈ 4.67 µM) and the MIC [1] is reported as 1.56 µg/mL (≈ 4.67 µM).
For CN[C@@H]1[C@H](O[C@H]2[C@H](O[C@H]3[C@H](O)[C@@H](O)[C@H](N=C(N)N)[C@@H](O)[C@@H]3N=C(N)N)O[C@@H](C)[C@]2(O)C=O)O[C@@H](CO)[C@H](O)[C@H]1O [STREPTOMYCIN], the MIC (Escherichia coli) was 1.56 µg/mL (≈ 2.69 µM), the MIC (Pseudomonas aeruginosa) was 1.56 µg/mL (≈ 2.69 µM) and the MIC (Klebsiella pneumoniae) was 1.56 µg/mL (≈ 2.69 µM).
With CC(=O)O[C@H](C)C[C@H](O)[C@@H]1C=CC(=O)O1 [BOTRYOLIDE-E] the MIC (Staphylococcus aureus) was 6.25 µg/mL (≈ 29.2 µM), the MIC (Bacillus subtilis) was 25 µg/mL (≈ 117 µM) and the MIC [1] was 50 µg/mL (≈ 233 µM). The MIC (Escherichia coli) was 12.5 µg/mL (≈ 58.4 µM), the MIC (Pseudomonas aeruginosa) was 50 µg/mL (≈ 233 µM) and the MIC (Klebsiella pneumoniae) was 50 µg/mL (≈ 233 µM). The zone of inhibition at 100 µg/mL (Rhizopus arrhizus [2]) was 14 mm, the zone of inhibition at 100 µg/mL (Aspergillus niger [3]) was 10 mm and the zone of inhibition at 100 µg/mL (Candida albicans [4]) was 12 mm. For the same compound, the zone of inhibition at 100 µg/mL (Saccharomyces cerevisiae [5]) was 8 mm.
Compound O=C1CN(/N=C/c2ccc([N+](=O)[O-])o2)C(=O)N1 [NITROFURANTOIN] has an MIC (Staphylococcus aureus) of 50 µg/mL (≈ 210 µM), an MIC (Bacillus subtilis) of 100 µg/mL (≈ 420 µM) and an MIC [1] of 50 µg/mL (≈ 210 µM). The MIC (Escherichia coli) was 25 µg/mL (≈ 105 µM), the MIC (Pseudomonas aeruginosa) was 100 µg/mL (≈ 420 µM) and the MIC (Klebsiella pneumoniae) was 50 µg/mL (≈ 210 µM).
In the case of Clc1ccccc1C(c1ccccc1)(c1ccccc1)n1ccnc1 [CLOTRIMAZOLE], the zone of inhibition at 30 µg/mL (Rhizopus arrhizus [6]) is reported as 21 mm, the zone of inhibition at 30 µg/mL (Aspergillus niger [7]) is reported as 18 mm and the zone of inhibition at 30 µg/mL (Candida albicans [8]) is reported as 22 mm. It also gave a zone of inhibition at 30 µg/mL (Saccharomyces cerevisiae [9]) of 23 mm.
